Read-outs that look alike come from different tables or passages of the source.
Tests used:
p-mTOR = test: Western blot of orthotopic xenograft tissue, p-mTOR; assay type: in vivo, mice; conditions: U87 orthotopic xenografts, versus control
Source text: (§1) The PI3K/Akt/mTOR signaling pathway is over activated in glioma tissues, and this increased activation is closely related to malignancy and chemoresistance of gliomas. Previous research reported that among its potential anti-tumor actions in breast cancer, DMC targeted multiple AMPK downstream pathways involving dephosphorylation of Akt and mTOR inhibition. Because DMC-BH is a DMC derivative, we further investigated the inhibitory effects of DMC-BH on gliomas by targeting the Akt/mTOR signaling pathway. We evaluated the expression of p-Akt, and p-mTOR in tumor tissues after DMC-BH treatment (Figure 6A). […] No significant changes were found in total Akt and mTOR expression. Moreover, the expression of p-Akt and p-mTOR in the DMC group was decreased with that in the control group (P < 0.05).
(§2) Figure 6 The effects of DMC-BH and DMC on the Akt/mTOR signaling pathway in U87 orthotopic glioblastoma xenografts. (A) Total protein was extracted from U87 orthotopic glioblastoma xenografts. Then p-Akt and p-mTOR protein expression was detected by Western blot. (B) The column chart illustrates the relative expression levels of these proteins.

[1] = Octanol-water partition coefficient; assay type: physicochemical
Source text: To determine whether DMC-BH inhibits the growth of glioma in the brain, we assessed its octanol-water partition coefficients and BBB penetrability. The hydrophobic parameters (logP) of DMC-BH and DMC were estimated under physiological as well as in acidic and basic conditions. The logP values for DMC-BH were negative at pH 2.5 and pH 9.0, as it was an amphoteric compound. At low pH or high pH conditions, DMC-BH occurred in the form of salts, and its logP values became negative due to better solubility.
Figure 2 Octanol-water partition coefficients (logP) and BBB penetrability of DMC-BH. (A) The logP was defined as log(Coctanol/Cwater). The amount of the compound in the water phase was determined spectrophotometrically, and the amount in the octanol phase was obtained by subtracting the supernatant concentration from the total concentration. (B) The BBB penetrability was defined as a brain-to-plasma AUC(time point) ratio. Values are expressed as the means ± SEM of 3 independent experiments.
The partition coefficient (P) between n-octanol and water was determined. The buffer mixture (0.05 M citric buffer, pH 2.5; 0.05 M acetic acid buffer, pH 5.5; 5 mM PBS, pH 7.4; or 0.05 M bicarbonate buffer, pH 9.0) and n-octanol was pre-equilibrated overnight at room temperature. After addition of the DMC or DMC-BH, the mixture was vortexed for 10 minutes and incubated at room temperature for an additional 15 minutes before centrifugation at 1000 g for 5 minutes. The amount of the compound in water phase was determined spectrophotometrically using standard curves, and the amount in lipid phase was obtained by subtracting the supernatant concentration from the total concentration, measured before mixing of the phases. P was determined according to P = (noct/Voct)/(nw/Vw), where n denotes the number of compound moles, V is the volume and the subscripts oct and w refer to n-octanol and aqueous phase, respectively.

U87 cell line = test: Subcutaneous human glioma xenograft in SCID mice; assay type: in vivo; conditions: for tumor volume at day 21: U87 subcutaneous xenograft, 20 mg/kg/day intraperitoneal, 21 days, control 1514 mm^3; for median survival: U87 xenograft, 20 mg/kg, control 15 days
Source text: To examine the anti-glioma effects of DMC-BH in vivo, a human glioma-SCID (severe combined immunodeficient) mouse model was established using the U87 cell line. […] The tumor volumes for the control, TMZ, DMC, and DMC-BH mice at day 21 were 1514 mm^3, 587 mm^3, 876 mm^3 and 570 mm^3, respectively. […] As shown in the Kaplan-Meier curves, the median survival was 15, 27, 19 and 35 days for the control, TMZ, DMC and DMC-BH groups, respectively (Figure 3B).
Figure 3 DMC-BH inhibited U87 glioma cell growth in vivo. Subcutaneous tumors generated from U87 cells were allowed to reach a volume of 150-200 mm^3 and were treated with 20 mg/kg TMZ, DMC or DMC-BH for 21 days. (A) Tumor volume was recorded according to treatment group at the indicated day. (B) The survival of brain tumor-bearing mice was recorded and represented in a Kaplan-Meier plot.
1-[4-Hydroxy-3-(pyrrolidin-1-ylmethyl) phenyl]-7-(4-hydroxy-3-methoxyphenyl) hepta-1,6-diene-3,5-dione, named DMC-BH, was constructed by our lab. DMC was obtained from Sigma-Aldrich (St. Louis, MO). To test the anti-glioma effect of DMC-BH in vivo, a xenograft model of human glioma was established. Four-week-old male SCID mice were purchased from Vital River Laboratory Animal Technology Co., Ltd. (Beijing, China). After a 1-week acclimatization, SCID mice were injected subcutaneously in the right flank with 6 × 10^5 […] glioma cells resuspended in 50 μL DMEM media. Treatment was initiated when the subcutaneous tumors reached an average size of 150 mm^3 to 200 mm^3. Mice received intraperitoneal injection of DMC (20 mg/kg/day), DMC-BH (20 mg/kg/day), TMZ (20 mg/kg/day) or vehicle as a control. Tumor diameter was measured every 2 days with calipers, and the tumor volume was calculated (length × width × height × 0.5). All experiments were carried out in keeping with the procedures and protocols of the Animal Ethics Committee of the First People's Hospital of Kunshan.

p-Akt = test: Western blot of orthotopic xenograft tissue, p-Akt; assay type: in vivo, mice; conditions: U87 orthotopic xenografts, versus control
Source text: as §1, §2

| Compound | p-mTOR expression in tumor tissues (p-mTOR) | logP ([1]; n-octanol/water (buffer), pH 7.4, n-octanol/water, read-out: logP) | logP ([1]; pH 2.5, n-octanol/water) | logP ([1]; pH 9.0, n-octanol/water) | tumor volume at day 21 (U87 cell line) | median survival (U87 cell line) | p-Akt expression in tumor tissues (p-Akt) |
| --- | --- | --- | --- | --- | --- | --- | --- |
| COc1cc(C=CC(=O)CC(=O)C=Cc2ccc(O)c(CN3CCCC3)c2)ccc1O [DMC-BH, 1-[4-Hydroxy-3-(pyrrolidin-1-ylmethyl)phenyl]-7-(4-hydroxy-3-methoxyphenyl) hepta-1,6-diene-3,5-dione] | significantly decreased | 3.26 | negative | negative | 570 mm^3 | 35 days | significantly decreased |
| Demethoxycurcumin [DMC, reference compound] | decreased |  |  |  | 876 mm^3 | 19 days | decreased |

— publication PMC7762498, “Demethoxycurcumin analogue DMC-BH exhibits potent anticancer effects on orthotopic glioblastomas” (Aging (Albany NY), 2020)
